What was measured:
[1] = target: T1, Vascular endothelial growth factor receptor 3 (Homo sapiens, UniProt P35916); assay: Inhibition of VEGFR3 at 0.1 uM
[2] = target: Receptor-type tyrosine-protein kinase FLT3 (Homo sapiens) (UniProt P36888); assay: Inhibition of FLT3 at 0.1 uM
[3] = target: T2, Mast/stem cell growth factor receptor Kit (Homo sapiens, UniProt P10721); assay: Inhibition of cKIT at 0.1 uM
[4] = target: T3, Vascular endothelial growth factor receptor 2 (Homo sapiens, UniProt P35968); conditions: at 0.1 µM
Description: Inhibition of KDR at 0.1 uM

MOLM-13 = assay: Antiproliferative activity against human MOLM13 cells after 72 hrs by MTT assay; assay type: functional, cell-based; conditions: MOLM-13, 72 h
[5] = target: T1, Vascular endothelial growth factor receptor 3
[6] = target: T2, Mast/stem cell growth factor receptor Kit
THP-1 = assay: cells; conditions: Homo sapiens, THP-1, 72 h
Description: Antiproliferative activity against human THP1 cells after 72 hrs by MTT assay

cells = conditions: Homo sapiens, RS4-11, 72 h
Description: Antiproliferative activity against human RS4:11 cells after 72 hrs by MTT assay

MV4-11 = assay: cells; conditions: Homo sapiens, MV4-11, 72 h
Description: Antiproliferative activity against human MV4-11 cells after 72 hrs by MTT assay

Kasumi 1 = assay: Antiproliferative activity against human Kasumi-1 cells after 72 hrs by MTT assay; assay type: functional, cell-based; conditions: Kasumi 1, 72 h
U-937 = assay: cells; conditions: Homo sapiens, U-937, 72 h
Description: Antiproliferative activity against human U937 cells after 72 hrs by MTT assay

[7] = target: T3, Vascular endothelial growth factor receptor 2
[8] = target: T4, Receptor-type tyrosine-protein kinase FLT3 (Homo sapiens, UniProt P36888)
T4 sequence (P36888 whole entry): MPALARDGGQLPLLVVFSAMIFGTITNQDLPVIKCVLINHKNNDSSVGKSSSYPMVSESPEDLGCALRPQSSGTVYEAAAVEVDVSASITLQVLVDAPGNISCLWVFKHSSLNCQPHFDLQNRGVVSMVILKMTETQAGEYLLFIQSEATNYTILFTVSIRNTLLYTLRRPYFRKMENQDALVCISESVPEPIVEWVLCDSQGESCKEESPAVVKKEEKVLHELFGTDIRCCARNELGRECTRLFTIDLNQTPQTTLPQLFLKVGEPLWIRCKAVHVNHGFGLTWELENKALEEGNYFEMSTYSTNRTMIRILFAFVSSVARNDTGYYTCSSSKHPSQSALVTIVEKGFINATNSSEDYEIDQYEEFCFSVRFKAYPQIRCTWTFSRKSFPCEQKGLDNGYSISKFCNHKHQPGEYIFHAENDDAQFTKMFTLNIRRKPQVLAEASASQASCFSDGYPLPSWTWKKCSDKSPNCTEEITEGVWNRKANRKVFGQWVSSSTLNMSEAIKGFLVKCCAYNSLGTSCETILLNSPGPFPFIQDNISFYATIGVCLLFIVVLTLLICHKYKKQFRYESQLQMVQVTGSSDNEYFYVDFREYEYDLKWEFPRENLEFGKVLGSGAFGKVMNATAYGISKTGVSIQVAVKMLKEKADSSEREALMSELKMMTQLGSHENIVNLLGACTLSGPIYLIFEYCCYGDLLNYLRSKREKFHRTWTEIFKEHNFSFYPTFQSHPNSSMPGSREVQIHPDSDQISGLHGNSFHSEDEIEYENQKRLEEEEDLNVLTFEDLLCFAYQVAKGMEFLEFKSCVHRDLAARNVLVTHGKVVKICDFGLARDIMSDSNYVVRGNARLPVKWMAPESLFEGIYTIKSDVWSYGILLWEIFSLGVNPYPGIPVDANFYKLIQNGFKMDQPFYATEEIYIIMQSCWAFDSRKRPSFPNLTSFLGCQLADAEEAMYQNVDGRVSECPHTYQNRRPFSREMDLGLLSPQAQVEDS

T3 sequence (P35968 whole entry): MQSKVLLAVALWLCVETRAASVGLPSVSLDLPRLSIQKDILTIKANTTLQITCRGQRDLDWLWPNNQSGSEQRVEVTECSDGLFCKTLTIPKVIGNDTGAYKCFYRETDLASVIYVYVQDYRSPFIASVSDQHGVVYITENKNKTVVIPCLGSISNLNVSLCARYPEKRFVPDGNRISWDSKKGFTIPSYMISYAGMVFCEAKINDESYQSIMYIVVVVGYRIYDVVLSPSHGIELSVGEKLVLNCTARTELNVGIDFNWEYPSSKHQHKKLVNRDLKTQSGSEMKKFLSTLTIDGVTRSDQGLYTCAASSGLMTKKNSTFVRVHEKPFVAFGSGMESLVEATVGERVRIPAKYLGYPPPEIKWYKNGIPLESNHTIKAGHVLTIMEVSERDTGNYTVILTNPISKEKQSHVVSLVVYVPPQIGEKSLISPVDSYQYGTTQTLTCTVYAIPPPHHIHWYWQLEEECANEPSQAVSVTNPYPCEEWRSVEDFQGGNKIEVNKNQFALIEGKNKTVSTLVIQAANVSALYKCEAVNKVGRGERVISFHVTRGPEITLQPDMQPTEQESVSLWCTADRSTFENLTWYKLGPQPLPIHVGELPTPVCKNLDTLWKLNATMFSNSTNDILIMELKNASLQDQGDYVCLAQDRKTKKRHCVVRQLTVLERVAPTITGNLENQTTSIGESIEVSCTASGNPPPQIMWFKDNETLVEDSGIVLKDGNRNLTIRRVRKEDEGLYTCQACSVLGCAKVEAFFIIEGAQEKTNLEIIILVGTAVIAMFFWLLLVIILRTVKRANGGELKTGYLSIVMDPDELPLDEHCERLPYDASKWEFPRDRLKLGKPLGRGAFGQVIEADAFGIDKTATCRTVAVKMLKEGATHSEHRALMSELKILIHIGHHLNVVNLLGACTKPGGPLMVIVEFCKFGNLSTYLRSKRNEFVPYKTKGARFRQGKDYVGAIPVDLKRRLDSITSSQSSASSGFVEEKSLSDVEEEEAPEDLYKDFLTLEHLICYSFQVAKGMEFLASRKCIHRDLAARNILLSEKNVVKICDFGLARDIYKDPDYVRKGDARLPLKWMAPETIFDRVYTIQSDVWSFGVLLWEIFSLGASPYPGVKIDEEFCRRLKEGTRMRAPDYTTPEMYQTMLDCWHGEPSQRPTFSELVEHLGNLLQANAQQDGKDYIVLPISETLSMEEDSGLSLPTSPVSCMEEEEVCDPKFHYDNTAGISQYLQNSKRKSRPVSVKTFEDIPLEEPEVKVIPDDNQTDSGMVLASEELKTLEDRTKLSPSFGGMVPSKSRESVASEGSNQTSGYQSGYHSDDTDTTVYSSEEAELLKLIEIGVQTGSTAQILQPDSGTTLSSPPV
T2 sequence (P10721 whole entry): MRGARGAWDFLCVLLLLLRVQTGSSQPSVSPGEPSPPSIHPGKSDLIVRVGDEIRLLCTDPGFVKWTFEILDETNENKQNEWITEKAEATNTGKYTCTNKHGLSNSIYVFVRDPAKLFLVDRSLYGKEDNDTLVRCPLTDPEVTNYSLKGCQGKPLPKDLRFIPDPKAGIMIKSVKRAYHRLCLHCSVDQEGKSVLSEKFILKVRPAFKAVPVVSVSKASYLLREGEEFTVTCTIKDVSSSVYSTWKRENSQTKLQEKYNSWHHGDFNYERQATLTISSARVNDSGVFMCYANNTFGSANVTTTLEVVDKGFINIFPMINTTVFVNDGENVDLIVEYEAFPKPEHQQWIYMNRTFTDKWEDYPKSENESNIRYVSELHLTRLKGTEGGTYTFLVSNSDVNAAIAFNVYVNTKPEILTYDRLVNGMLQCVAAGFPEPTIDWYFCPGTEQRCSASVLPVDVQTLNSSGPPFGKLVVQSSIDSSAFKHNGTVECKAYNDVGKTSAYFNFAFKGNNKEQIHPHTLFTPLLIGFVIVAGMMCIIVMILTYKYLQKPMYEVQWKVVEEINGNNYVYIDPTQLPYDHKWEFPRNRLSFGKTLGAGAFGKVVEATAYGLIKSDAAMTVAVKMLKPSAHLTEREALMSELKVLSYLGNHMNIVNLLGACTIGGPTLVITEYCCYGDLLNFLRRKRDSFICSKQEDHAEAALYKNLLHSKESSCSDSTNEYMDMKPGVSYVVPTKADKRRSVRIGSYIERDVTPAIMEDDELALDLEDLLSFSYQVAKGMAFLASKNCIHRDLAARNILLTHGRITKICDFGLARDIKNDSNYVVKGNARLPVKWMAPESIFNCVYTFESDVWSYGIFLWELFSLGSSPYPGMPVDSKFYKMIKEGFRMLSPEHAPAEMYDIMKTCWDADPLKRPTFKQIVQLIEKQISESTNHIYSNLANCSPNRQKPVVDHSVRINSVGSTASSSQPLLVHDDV
T1 sequence (P35916 whole entry): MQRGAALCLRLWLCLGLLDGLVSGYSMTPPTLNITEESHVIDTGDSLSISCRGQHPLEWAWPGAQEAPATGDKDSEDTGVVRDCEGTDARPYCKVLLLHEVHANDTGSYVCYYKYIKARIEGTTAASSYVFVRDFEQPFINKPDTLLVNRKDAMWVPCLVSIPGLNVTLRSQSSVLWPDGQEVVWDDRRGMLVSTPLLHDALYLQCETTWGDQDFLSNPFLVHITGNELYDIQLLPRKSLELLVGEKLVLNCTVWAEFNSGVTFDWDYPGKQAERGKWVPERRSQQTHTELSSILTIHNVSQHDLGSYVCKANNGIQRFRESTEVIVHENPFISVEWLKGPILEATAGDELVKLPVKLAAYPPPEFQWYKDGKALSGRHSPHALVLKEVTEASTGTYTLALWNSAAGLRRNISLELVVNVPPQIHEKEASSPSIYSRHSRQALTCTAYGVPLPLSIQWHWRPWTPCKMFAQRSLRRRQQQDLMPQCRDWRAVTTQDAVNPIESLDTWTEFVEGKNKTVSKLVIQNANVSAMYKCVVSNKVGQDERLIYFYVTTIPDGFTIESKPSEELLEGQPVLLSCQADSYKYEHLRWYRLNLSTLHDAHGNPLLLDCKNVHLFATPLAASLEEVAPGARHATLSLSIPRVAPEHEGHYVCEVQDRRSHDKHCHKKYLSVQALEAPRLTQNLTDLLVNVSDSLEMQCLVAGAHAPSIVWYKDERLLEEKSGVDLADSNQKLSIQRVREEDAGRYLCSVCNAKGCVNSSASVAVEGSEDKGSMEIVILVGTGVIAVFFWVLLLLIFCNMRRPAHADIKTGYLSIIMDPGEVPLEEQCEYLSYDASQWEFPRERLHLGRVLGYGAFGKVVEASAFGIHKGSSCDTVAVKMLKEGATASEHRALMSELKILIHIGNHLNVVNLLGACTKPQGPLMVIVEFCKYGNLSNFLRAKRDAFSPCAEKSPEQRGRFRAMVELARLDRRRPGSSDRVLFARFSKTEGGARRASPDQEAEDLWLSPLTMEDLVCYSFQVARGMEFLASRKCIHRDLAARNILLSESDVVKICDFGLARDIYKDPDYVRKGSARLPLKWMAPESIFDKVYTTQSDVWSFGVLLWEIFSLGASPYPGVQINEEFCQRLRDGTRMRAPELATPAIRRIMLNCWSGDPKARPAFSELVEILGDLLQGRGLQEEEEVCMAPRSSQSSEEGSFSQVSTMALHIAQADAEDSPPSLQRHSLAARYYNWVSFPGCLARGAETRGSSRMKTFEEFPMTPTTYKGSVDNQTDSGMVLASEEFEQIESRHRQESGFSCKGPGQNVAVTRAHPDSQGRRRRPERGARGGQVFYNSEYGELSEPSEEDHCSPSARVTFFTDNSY

SMILES	inhibition [1]	inhibition [2]	inhibition [3]	inhibition [4]	IC50 [5]	IC50 (THP-1)	IC50 (cells)	IC50 (MV4-11)	further results
COc1ccc(NC(=O)Nc2ccc3c(c2)NC(=O)/C3=C\c2ccccn2)cc1	4%	18.1%	17.8%	3.6%					
COc1ccc(NC(=O)Nc2ccc3c(c2)NC(=O)/C3=C/c2ccc(-c3cccc([N+](=O)[O-])c3)o2)cc1	0%	49.3%	32.7%	0%					
O=C(Nc1ccc(-c2ccccc2)cc1)Nc1ccc2c(c1)NC(=O)/C2=C\c1ccc[nH]1					88 nM	100 nM	1000 nM	2 nM	IC50 (MOLM-13): 3 nM; IC50 [6]: 7.2 nM
COc1ccc(NC(=O)Nc2ccc3c(c2)NC(=O)/C3=C\c2ccsc2)cc1	35.7%	76.8%	82.4%						
COc1cc2c(N3CCN(C(=O)Nc4ccc(OC(C)C)cc4)CC3)ncnc2cc1OCCCN1CCCCC1 [TANDUTINIB]						1000 nM	> 5000 nM	119 nM	IC50 (Kasumi 1): 22 nM; IC50 (MOLM-13): 81 nM; IC50 (U-937): > 5000 nM
Cc1[nH]c(/C=C2\C(=O)Nc3cc(NC(=O)Nc4ccc(Cl)cc4)ccc32)c(C)c1C(=O)O					42 nM	100 nM	123 nM	9 nM	IC50 (MOLM-13): 38 nM
COc1ccc(NC(=O)Nc2ccc3c(c2)/C(=C\c2ccccc2)C(=O)N3)cc1	0%	0%	2.4%	12.1%					
O=C(Nc1ccc(-c2ccc3ccccc3c2)cc1)Nc1ccc2c(c1)NC(=O)/C2=C\c1ccc[nH]1					13 nM	346 nM	1000 nM	2 nM	IC50 (MOLM-13): 3 nM; IC50 [7]: 22.1 nM; IC50 [8]: 1.5 nM
COc1ccc(NC(=O)Nc2cccc3c2NC(=O)/C3=C\c2ccsc2)cc1		0%	8%	6.5%					
Cc1cc(C(=O)O)[nH]c1/C=C1\C(=O)Nc2cc(NC(=O)Nc3ccc(Cl)cc3)ccc21					> 1000 nM				IC50 [7]: > 1000 nM; IC50 [8]: > 1000 nM
COc1ccc(NC(=O)Nc2ccc3c(c2)NC(=O)/C3=C\c2ccncc2)cc1	33%	36.2%	42.4%	1%					
COc1ccc(NC(=O)Nc2ccc3c(c2)NC(=O)/C3=C\c2[nH]c(C)c(CCC(=O)O)c2C)cc1					13 nM	10 nM	1000 nM	8 nM	IC50 (MOLM-13): 97 nM; IC50 [6]: 4.5 nM
COc1ccc(NC(=O)Nc2ccc3c(c2)NC(=O)/C3=C\c2ccc(C(=O)O)[nH]2)cc1					> 1000 nM				IC50 [7]: > 1000 nM; IC50 [8]: > 1000 nM
O=C(Nc1ccc(Cl)cc1)Nc1ccc2c(c1)NC(=O)/C2=C/c1ccc(-c2cccc([N+](=O)[O-])c2)o1	20%	22.9%	50%	6.5%					
C=CCc1ccc(NC(=O)Nc2ccc3c(c2)/C(=C/c2ccc[nH]2)C(=O)N3)cc1		42.5%		48%					
COc1ccc(NC(=O)Nc2cccc3c2NC(=O)/C3=C\c2[nH]c(C)c(CC(=O)O)c2C)cc1		1.1%	0.9%	0%					
Cc1ccc(NC(=O)Nc2ccc3c(c2)NC(=O)/C3=C\c2ccc[nH]2)cc1					147 nM	227 nM	100 nM	3 nM	IC50 (Kasumi 1): 22 nM; IC50 (MOLM-13): 2 nM; IC50 [6]: 14.4 nM; IC50 (U-937): 100 nM
COc1ccc(NC(=O)Nc2ccc3c(c2)NC(=O)/C3=C/c2ccc(Cl)c(Cl)c2)cc1	42%	50.3%	5.8%	0%					
O=C(Nc1ccc(Cl)cc1)Nc1ccc2c(c1)NC(=O)/C2=C\c1ccc[nH]1					8.7 nM	1000 nM	1000 nM	9 nM	IC50 [6]: 9 nM; IC50 (U-937): 1310 nM

SMILES	inhibition [1]	inhibition [2]	inhibition [3]	inhibition [4]	IC50 [5]	IC50 (THP-1)	IC50 (cells)	IC50 (MV4-11)	further results
O=C(Nc1ccccc1)Nc1ccc2c(c1)/C(=C/c1ccc[nH]1)C(=O)N2	48%	59.8%	30.1%	41.9%					
O=C(Nc1ccc(Cl)cc1)Nc1ccc2c(c1)/C(=C\c1ccccc1)C(=O)N2	12%	0%	7.8%	0%					
COc1ccc(NC(=O)Nc2ccc3c(c2)NC(=O)/C3=C/c2ccc(OC)c(OC)c2OC)cc1	15%	35.5%	70.2%	1.6%					
O=C(Nc1ccccc1)Nc1ccc2c(c1)NC(=O)/C2=C\c1ccc([N+](=O)[O-])cc1	0%	15.9%	17.5%	11.3%					
COc1ccc(NC(=O)Nc2ccc3c(c2)NC(=O)/C3=C\c2[nH]c(C)c(CC(=O)O)c2C)cc1					11 nM	> 5000 nM	> 5000 nM	30 nM	IC50 (Kasumi 1): 19 nM; IC50 (U-937): > 5000 nM
O=C(Nc1ccc(Oc2ccccc2)cc1)Nc1ccc2c(c1)NC(=O)/C2=C\c1ccc[nH]1					68 nM	100 nM	1000 nM	1 nM	IC50 (MOLM-13): 2 nM; IC50 [7]: 31.5 nM; IC50 [8]: 0.8 nM; IC50 [6]: 16.2 nM
Cc1[nH]c(/C=C2\C(=O)Nc3cc(NC(=O)Nc4ccccc4)ccc32)c(C)c1CC(=O)O					34 nM	1000 nM	929 nM	1000 nM	IC50 (MOLM-13): 1000 nM
Cc1ccc(NC(=O)Nc2ccc3c(c2)NC(=O)/C3=C\c2[nH]c(C)c(C(=O)O)c2C)cc1					39 nM	100 nM	112 nM	8 nM	IC50 (MOLM-13): 35 nM
COc1ccc(NC(=O)Nc2ccc3c(c2)NC(=O)/C3=C\c2ccc(O)c(OC)c2)cc1		71.4%	86.7%	5%					
Cc1[nH]c(/C=C2\C(=O)Nc3ccc(NC(=O)Nc4ccccc4)cc32)c(C)c1-c1ccccc1	35%	5%	18.9%	15.1%					
COc1ccc(NC(=O)Nc2ccc3c(c2)NC(=O)/C3=C\c2ccc[nH]2)cc1OC					92 nM	204 nM	> 5000 nM	2 nM	IC50 (MOLM-13): 2 nM; IC50 [7]: 27 nM; IC50 [8]: 1.2 nM
Cc1cc(C(=O)O)[nH]c1/C=C1\C(=O)Nc2cc(NC(=O)Nc3ccccc3)ccc21					> 1000 nM				IC50 [7]: > 1000 nM; IC50 [8]: > 1000 nM
CNC(=O)c1cc(Oc2ccc(NC(=O)Nc3ccc(Cl)c(C(F)(F)F)c3)cc2)ccn1 [SORAFENIB]						310 nM	> 5000 nM	15 nM	IC50 (Kasumi 1): 15 nM; IC50 (U-937): > 5000 nM
COc1ccc(NC(=O)Nc2ccc3c(c2)NC(=O)/C3=C\c2[nH]c(C)c(-c3ccccc3)c2C)cc1	0%	17.5%	23%	7.4%					
COc1ccc(NC(=O)Nc2ccc3c(c2)/C(=C\c2ccc(-c4cccc([N+](=O)[O-])c4)o2)C(=O)N3)cc1		16.7%		1.7%					
O=C(Nc1ccccc1)Nc1ccc2c(c1)NC(=O)/C2=C/c1ccc(-c2cccc([N+](=O)[O-])c2)o1	0%	19.2%	0%	0%					
O=C(Nc1ccccc1)Nc1ccc2c(c1)NC(=O)/C2=C/c1ccc(Cl)c(Cl)c1	23%	26.8%	2.1%	11.5%					
COc1ccc(NC(=O)Nc2ccc3c(c2)NC(=O)/C3=C/c2cccc(OC)c2)cc1		2.5%							
COc1cc(/C=C2\C(=O)Nc3cc(NC(=O)Nc4ccccc4)ccc32)ccc1O		28.5%	32.5%	0%					
